System: male accessory sex glands and tissues in sexually immature castrated male rats
Test: Oral Hershberger Assay: weights of male accessory sex glands and tissues after ten days of oral gavage
Type: in vivo, rat
Settings: ten consecutive days
Description: Applicants performed a set of experiments to identify the potential for a compound to mimic endogenous sex hormones. An in vivo study was performed using a short-term screening assay to identify changes in weights of male accessory sex glands and tissues in sexually immature castrated male rats. The study preformed is known in the art as an “Oral Hershberger Assay”.
This study included forty-two sexually immature castrated male rats that were randomly assigned to seven different groups and assigned formulations of the test article, oxandrolone, positive control article, 17α-methyl testosterone, or the vehicle, aqueous 0.5% methylcellulose. These formulations were administered orally via gavage once daily for ten consecutive days at dosages of 0 (vehicle), 1, 3 and 10 mg/kg/day. The dosage volume was 0.5 mL/kg, adjusted daily for body weight changes and were given at approximately the same time each day.
Approximately 24 hours after the last dosage administration the rats were euthanized via carbon dioxide asphyxiation. The following tissues were excised trimmed and weighed: liver, paired adrenal glands, paired kidneys, ventral prostate, seminal vesicles together with the coagulating gland, levator ani and bulbocavemous muscles, glands penis and cowper's gland. These tissues were retained in neutral buffered 10% formalin to be used for any possible future evaluation.
The following table presents the percent changes from the control group value.

| SMILES | Cowpers Gland, percent changes from the control group value (1 mg/kg/day orally via gavage) | Glands Penis, percent changes from the control group value (1 mg/kg/day orally via gavage) | Levator Ani and Bulbocavernous, percent changes from the control group value (1 mg/kg/day orally via gavage) | Prostate (Fixed), percent changes from the control group value (1 mg/kg/day orally via gavage) | Prostate, percent changes from the control group value (1 mg/kg/day orally via gavage) | Seminal Vesicles with Fluid, percent changes from the control group value (1 mg/kg/day orally via gavage) | Cowpers Gland, percent changes from the control group value (3 mg/kg/day orally via gavage) | Glands Penis, percent changes from the control group value (3 mg/kg/day orally via gavage) | Levator Ani and Bulbocavernous, percent changes from the control group value (3 mg/kg/day orally via gavage) | Prostate (Fixed), percent changes from the control group value (3 mg/kg/day orally via gavage) | Prostate, percent changes from the control group value (3 mg/kg/day orally via gavage) | Seminal Vesicles with Fluid, percent changes from the control group value (3 mg/kg/day orally via gavage) | Cowpers Gland, percent changes from the control group value (10 mg/kg/day orally via gavage) | Glands Penis, percent changes from the control group value (10 mg/kg/day orally via gavage) | Levator Ani and Bulbocavernous, percent changes from the control group value (10 mg/kg/day orally via gavage) | Prostate (Fixed), percent changes from the control group value (10 mg/kg/day orally via gavage) | Prostate, percent changes from the control group value (10 mg/kg/day orally via gavage) | Seminal Vesicles with Fluid, percent changes from the control group value (10 mg/kg/day orally via gavage) |
| --- | --- | --- | --- | --- | --- | --- | --- | --- | --- | --- | --- | --- | --- | --- | --- | --- | --- | --- |
| C[C@]12CCC(=O)C=C1CC[C@@H]1[C@@H]2CC[C@@]2(C)[C@H]1CC[C@]2(C)O [Meth-Test, 17α-methyl testosterone] | 88.7% | 127.9% | 111.0% | 101.9% | 97.0% | 89.6% | 179.0% | 102.6% | 114.2% | 119.0% | 109.1% | 118.0% | 237.1% | 122.9% | 139.7% | 234.0% | 222.5% | 194.4% |
| C[C@]12COC(=O)C[C@@H]1CC[C@@H]1[C@@H]2CC[C@@]2(C)[C@H]1CC[C@]2(C)O [Oxandro, oxandrolone] | 137.1% | 104.1% | 107.3% | 127.6% | 135.3% | 100.7% | 159.7% | 107.4% | 148.2% | 149.9% | 139.4% | 120.1% | 206.5% | 109.6% | 192.4% | 192.2% | 166.3% | 171.0% |
